Experiment [1] addresses Recombinant full-length human IDO1 (Homo sapiens (Human), UniProt P14902). In words: IDO1 enzymatic assay (IDO inhibitory activity). The class given is biochemical. Particulars: 2 nM enzyme, 5 μM L-tryptophan, pH6.5, 30 min pre-incubation, NFK quantified by LCMS; mean values if measured multiple times; read-out: hIDO activity (IC50 in nM). Put shortly:
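N-His-tagged enzyme from E. coli at 2 nM in 37.5 mM phosphate pH6.5 with ascorbate, methylene blue, catalase; compounds 10 μM–0.5 nM, 0.6% DMSO, pre-incubated 30 min RT, then 5 μM L-tryptophan for 30 min RT. NFK quantified by LCMS against d5-tryptophan; IC50 from duplicate four-parameter fit, means where repeated.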

In experiment [2] the target is Recombinant human TDO comprising amino acids 19-407 (Homo sapiens (Human), UniProt P48775). In words: TDO2 enzymatic assay (TDO inhibitory activity). The settings on record: 15 nM enzyme, 200 μM L-tryptophan, pH7, 30 min pre-incubation, NFK quantified by LCMS; mean values if measured multiple times; read-out: hTDO activity (IC50 in nM). It is filed as biochemical. In short, it runs like this:
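His-tagged enzyme (15 nM, E. coli-expressed) in pH 7 phosphate buffer with ascorbate, catalase, BSA, Tween 20, 0.6% DMSO; 30 min RT pre-incubation with compound (10 μM–0.5 nM), then 200 μM L-tryptophan for 30 min RT. N′-formylkynurenine quantified by LCMS against deuterated tryptophan; IC50 by four-parameter fit, duplicates.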

Each structure is given as a SMILES string.

Recombinant human TDO comprising amino acids 19-407, sequence (P48775 19-406 limits assumed): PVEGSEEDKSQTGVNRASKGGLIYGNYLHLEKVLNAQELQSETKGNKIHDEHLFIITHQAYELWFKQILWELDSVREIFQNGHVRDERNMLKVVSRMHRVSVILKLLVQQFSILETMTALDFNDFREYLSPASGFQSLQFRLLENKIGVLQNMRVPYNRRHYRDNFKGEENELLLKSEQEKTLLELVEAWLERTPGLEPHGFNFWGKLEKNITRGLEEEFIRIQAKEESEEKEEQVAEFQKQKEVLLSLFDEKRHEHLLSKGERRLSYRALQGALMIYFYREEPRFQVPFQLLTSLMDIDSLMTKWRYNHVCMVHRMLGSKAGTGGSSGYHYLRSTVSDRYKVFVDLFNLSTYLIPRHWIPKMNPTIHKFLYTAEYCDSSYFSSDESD
Recombinant full-length human IDO1, sequence (P14902 whole entry): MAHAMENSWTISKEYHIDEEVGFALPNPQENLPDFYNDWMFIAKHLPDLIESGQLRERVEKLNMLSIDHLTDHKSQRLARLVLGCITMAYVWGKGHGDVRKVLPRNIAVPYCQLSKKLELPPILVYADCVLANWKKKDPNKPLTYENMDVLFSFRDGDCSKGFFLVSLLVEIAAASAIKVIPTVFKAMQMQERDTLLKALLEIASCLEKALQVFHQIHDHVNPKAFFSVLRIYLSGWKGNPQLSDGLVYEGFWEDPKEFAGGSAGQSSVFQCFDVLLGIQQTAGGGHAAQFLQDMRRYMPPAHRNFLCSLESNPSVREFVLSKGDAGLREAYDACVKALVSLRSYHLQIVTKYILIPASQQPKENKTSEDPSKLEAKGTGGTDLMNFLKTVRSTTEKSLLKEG

As for `OC(c1c([C@@H]2C[C@@H]2F)sc2cncn12)C1CCCCC1` (relative stereo) [Example 186, Cyclohexyl-[2-(cis-2-fluoro-cyclopropyl)-imidazo[5,1-b]thiazol-3-yl]-methanol], the 50% inhibitory concentration (IC50) (usually the concentration that inhibits the measured activity by half) in experiment [1] came out at 21.8 nM; in experiment [2], 491 nM.
The corresponding values for `OC(c1c([C@@H]2C[C@H]2F)sc2cncn12)C1CCCCC1` (relative stereo) [Example 187, Cyclohexyl-[2-(trans-2-fluoro-cyclopropyl)-imidazo[5,1-b]thiazol-3-yl]-methanol] are 18.5 nM and 2260 nM.
The like results for `Cc1sc2cncn2c1C(O)[C@H]1C[C@@H]1c1ccccc1` (single isomer, unassigned) [Example 167, rac-(S*)-(2-Methyl-imidazo[5,1-b]thiazol-3-yl)-((1S*,2S*)-2-phenyl-cyclopropyl)-methanol] were, in that order, 338 nM and more than 10200 nM.
As for `Cc1sc2cncn2c1C(O)[C@H]1C[C@@H]1c1ccccc1` (single isomer, unassigned) [Example 168, rac-(R*)-(2-Methyl-imidazo[5,1-b]thiazol-3-yl)-((1S*,2S*)-2-phenyl-cyclopropyl)-methanol], the IC50 turned out to be 123 nM in experiment [1] and 2710 nM in experiment [2].
In the case of `O[C@H](c1c(C2CC2)sc2cncn12)C1CCCCC1` [Example 1a, (S)-Cyclohexyl(2-cyclopropylimidazo[5,1-b]thiazol-3-yl)methanol], the IC50 was found to be 7.5 nM in experiment [1] and 115 nM in experiment [2].
The like results for `O[C@@H](CC1CCCCC1)c1c(C2CC2)sc2cncn12` [Example 2a, (S)-2-Cyclohexyl-1-(2-cyclopropylimidazo[5,1-b]thiazol-3-yl)ethan-1-ol] were, in that order, 10.3 nM and 268 nM.
Regarding `CC(C)c1sc2cncn2c1[C@@H](O)C1CCCCC1` [Example 3a, (S)-Cyclohexyl-(2-isopropyl-imidazo[5,1-b]thiazol-3-yl)-methanol], the IC50 came to 11.7 nM in experiment [1] and 603 nM in experiment [2].
The like results for `CC(C)c1sc2cncn2c1[C@@H](O)CC1CCCCC1` [Example 4a, (S)-2-Cyclohexyl-1-(2-isopropyl-imidazo[5,1-b]thiazol-3-yl)-ethanol] were, in that order, 15.5 nM and 386 nM.
In the case of `Cc1sc2cncn2c1[C@@H](O)CC1CCCCC1` [Example 5a, (S)-2-Cyclohexyl-1-(2-methyl-imidazo[5,1-b]thiazol-3-yl)-ethanol], the IC50 in experiment [1] was determined as 16.5 nM; in experiment [2] it was 375 nM.
The corresponding values for `Cc1sc2cncn2c1[C@@H](O)C1CCCCC1` [Example 6a, (S)-Cyclohexyl-(2-methyl-imidazo[5,1-b]thiazol-3-yl)-methanol] are 37.3 nM and 60.4 nM.
As for `O[C@H](c1c(C2CCC2)sc2cncn12)C1CCCCC1` [Example 7a, (S)-(2-Cyclobutylimidazo[5,1-b]thiazol-3-yl)(cyclohexyl)methanol], the IC50 in experiment [1] is 39.7 nM; in experiment [2], 138 nM.
Take `O[C@@H](CC1CCCCC1)c1c(C2CCC2)sc2cncn12` [Example 8a, (S)-1-(2-Cyclobutylimidazo[5,1-b]thiazol-3-yl)-2-cyclohexylethan-1-ol]: the half-inhibitory concentration (IC50) stood at 72.3 nM in experiment [1] and 129 nM in experiment [2].
The like results for `O[C@H](c1c(C2CCCC2)sc2cncn12)C1CCCCC1` [Example 9a, (S)-Cyclohexyl(2-cyclopentylimidazo[5,1-b]thiazol-3-yl)methanol] were, in that order, 131 nM and 131 nM.
The corresponding values for `O[C@@H](CC1CCCCC1)c1c(C2CCCC2)sc2cncn12` [Example 10a, (S)-2-Cyclohexyl-1-(2-cyclopentylimidazo[5,1-b]thiazol-3-yl)ethan-1-ol] are 190 nM and 164 nM.
As to `O[C@H](c1c(Cl)sc2cncn12)C1CCCCC1` [Example 13a, (S)-(2-Chloroimidazo[5,1-b]thiazol-3-yl)(cyclohexyl)methanol], the values for the IC50 in experiment [1] and in experiment [2] were 93 nM and 162 nM, respectively.
Regarding `O[C@@H](CC1CCCCC1)c1c(Cl)sc2cncn12` [Example 16a, (S)-1-(2-Chloro-imidazo[5,1-b]thiazol-3-yl)-2-cyclohexyl-ethanol], the values for the half-inhibitory concentration (IC50) in experiment [1] and in experiment [2] were 35.6 nM and 658 nM, respectively.
As for `O[C@@H](CC1CCCC1)c1c(C2CC2)sc2cncn12` [Example 24a, (S)-2-Cyclopentyl-1-(2-cyclopropyl-imidazo[5,1-b]thiazol-3-yl)-ethanol], the half-inhibitory concentration (IC50) in experiment [1] amounted to 20.5 nM; in experiment [2], 356 nM.
The like results for `CC1CCCC(C(O)c2c(C3CC3)sc3cncn23)C1` (stereo not drawn) [Example 27, (2-Cyclopropyl-imidazo[5,1-b]thiazol-3-yl)-(3-methyl-cyclohexyl)-methanol] were, in that order, 17.2 nM and 384 nM.
Regarding `O[C@@H](CC1CCCCCC1)c1c(C2CC2)sc2cncn12` [Example 28a, (S)-2-Cycloheptyl-1-(2-cyclopropyl-imidazo[5,1-b]thiazol-3-yl)-ethanol], the figures for the concentration for half-maximal inhibition (IC50) in experiment [1] and in experiment [2] were 22.2 nM and 358 nM, respectively.
The like results for `CC1CCCC(CC(O)c2c(C3CC3)sc3cncn23)C1` (stereo not drawn) [Example 29, 1-(2-Cyclopropyl-imidazo[5,1-b]thiazol-3-yl)-2-(3-methyl-cyclohexyl)-ethanol] were, in that order, 21.4 nM and 509 nM.
Consider `CC1CCC(C(O)c2c(C3CC3)sc3cncn23)C1` (stereo not drawn) [Example 30, (2-Cyclopropyl-imidazo[5,1-b]thiazol-3-yl)-(3-methyl-cyclopentyl)-methanol], for which the IC50 in experiment [1] stood at 12.1 nM; in experiment [2], 454 nM.
The like results for `CC1CCCCC1CC(O)c1c(C2CC2)sc2cncn12` (stereo not drawn) [Example 31, 1-(2-Cyclopropyl-imidazo[5,1-b]thiazol-3-yl)-2-(2-methyl-cyclohexyl)-ethanol] were, in that order, 45.2 nM and 411 nM.
The corresponding values for `CC1(C)CCC(CC(O)c2c(C3CC3)sc3cncn23)C1` (stereo not drawn) [Example 34, 1-(2-Cyclopropyl-imidazo[5,1-b]thiazol-3-yl)-2-(3,3-dimethyl-cyclopentyl)-ethanol] are 39.4 nM and 321 nM.
The corresponding values for `CC1(C)CCC(C[C@H](O)c2c(C3CC3)sc3cncn23)C1` (stereo partly drawn) [Example 34a, (S)-1-(2-Cyclopropyl-imidazo[5,1-b]thiazol-3-yl)-2-(3,3-dimethyl-cyclopentyl)-ethanol] are 19.5 nM and 262 nM.
As for `OC(CC1CCC(c2ccccc2)C1)c1c(C2CC2)sc2cncn12` (stereo not drawn) [Example 35, 1-(2-Cyclopropyl-imidazo[5,1-b]thiazol-3-yl)-2-(3-phenyl-cyclopentyl)-ethanol], the half-inhibitory concentration (IC50) in experiment [1] was 114 nM; in experiment [2], 1570 nM.
The like results for `CC1(C)CC([C@H](O)c2c(C3CC3)sc3cncn23)C1` [Example 36a, (S)-(2-Cyclopropyl-imidazo[5,1-b]thiazol-3-yl)-(3,3-dimethyl-cyclobutyl)-methanol] were, in that order, 5.03 nM and 246 nM.
The like results for `OC(CC1CC2C=CC1C2)c1c(C2CC2)sc2cncn12` (stereo not drawn) [Example 38, 2-Bicyclo[2.2.1]hept-5-en-2-yl-1-(2-cyclopropyl-imidazo[5,1-b]thiazol-3-yl)-ethanol] were, in that order, 22.6 nM and 191 nM.

These data come from patent US11267824B2, “Inhibitors of indoleamine 2,3-dioxygenase and/or tryptophan 2,3-dioxygenase” (IDORSIA PHARMACEUTICALS LTD, priority 2017, dated 2022).
